Laboratory results published in US8354387B2, “Methods and compositions for delivering siRNA into mammalian cells” (Centre National de la Recherche Scientifique, priority 2004, dated 2013).

Experiments:
Hs68 human fibroblasts = test: Cellular uptake and localization of fluorescently labelled siRNA by fluorescence microscopy on living cells; type: cell-based; conditions: for final subcellular localization of fluorescently-labeled siRNA: GAPDH siRNA, molar ratio 10/1, Hs68, living cells; for efficiency of siRNA delivery into cultured cells (% cells): fluorescently-labelled GAPDH siRNA, carrier/siRNA molar ratio 10/1, Hs68, 30 min, with serum
Description: Hs68 (ATCC no CRL-1635), Cos-7 (ATCC no CRL-1651) and HeLa (ATCC no CCL-2) cell lines were cultured in Dulbecco's Modified Eagle's Medium supplemented with 2 mM glutamine, 1% antibiotics (streptomycin 10 000 μg/ml, penicillin, 10,000 IU/ml) and 10% (w/v) fetal calf serum (FCS) at 37° C. in a humidified atmosphere containing 5% CO2 as described previously (18). For MPG or MPG^ΔNLS-mediated gene delivery, peptide carrier/siRNA complexes were formed in DMEM or PBS, at a charge ratio 10:1 and incubated for 30 min at 37° C. Cells grown to 60% confluence were then overlaid with these preformed complexes. After 30 min incubation at 37° C., 1 ml of fresh DMEM supplemented with 10% fetal calf serum was added to the cells, without removing the overlay of carrier/siRNA, and cells were returned to the incubator.
Transfections were performed for 1 hour, after which cells were extensively washed and either analyzed by fluorescence microscopy in order to determine the cellular localization of the fluorescently labeled oligonucleotide or returned to the incubator at 37° C. in the presence of fresh medium supplemented with serum.
siRNA targeting the 3′UTR of GAPDH were from the Silencer™ GAPDH siRNA kit (Ambion). Fluorescent labeling of siRNA was performed using either the Fam or the Cy3 Silencer™ labeling kit (Ambion) and modified as described in the manufacturer's protocol. pRL-Luc reporter gene was from Promega and siRNA targeting luciferase sense ^5′[…]^3′ (SEQ ID NO:4) and antisense ^3′ […]^5′ (SEQ ID NO:5) and mismatch sense ^5′[…]^3′ (SEQ ID NO:6) and antisense ^3′[…]^5″ (SEQ ID NO:7) siRNA were obtained from Genset Oligos.
RNA interference (siRNA) constitutes a powerful tool to silence gene expression post-transcriptionally (28, 29). In order to validate the potential of MPG-like carriers, the ability of MPG and MPG^ΔNLS to promote cellular uptake of siRNA was investigated. Fluorescently-labelled siRNA designed to silence GAPDH were complexed with both MPG and MPG^ΔNLS at a molar ratio of 10/1, incubated onto cultured Hs68 human fibroblasts in the presence of serum for 30 min, following which internalization and subcellular localization of siRNA were examined by fluorescence microscopy. Two different fluorescent probes (fluorescein and Cy-3), were used in order to avoid any artefacts which might have been associated with the nature of the probe. As fixation procedures have sometimes been reported to cause artifactual uptake (30-32), experiments were performed on living cells.

GAPDH mRNA = test: Kinetics of GAPDH mRNA degradation by Northern blotting; type: cell-based, human; conditions: 50 nM siRNA
Description: FIG. 4: MPG-mediated delivery of siRNA induces a robust biological response. A/ MPG mediated delivery of siRNA targeting luciferase gene. MPG/siRNA or MPG^ΔNLS/DNA complexes were formed in DMEM at a charge ratio 10:1 and incubated for 30 min at 37° C., then overlaid onto Cos-7 or HeLa cells grown to 60% confluence and previously transfected with the pRL-SV40 plasmid (Promega) encoding the reporter gene luciferase under control of an SV40 promoter. After 30 min incubation at 37° C., 1 ml of fresh DMEM supplemented with 10% fetal calf serum was added onto the cells. Luciferase activity was measured 48 hrs after transfection. Transfections were also performed with Oligofectamine™ as a standard. Control experiments were performed with either naked siRNA or using a mismatch siRNA (dashed bars). B/ MPG-mediated delivery of siRNA targeting GAPDH gene: Western blot analysis. Different concentrations of siRNA (25, 50, 100 nM) were transfected with either MPG or MPG^ΔNLS and the levels of GAPDH protein were analyzed by Western blotting 30 hrs post transfection. Actin was used as a control to normalize protein loading. […] The kinetics of siRNA (50 nM)-induced degradation of GAPDH mRNA following transfection with either MPG or MPG^ΔNLS were analyzed by Northern blotting. […]
Hs68 or HeLa cells (5×10^6 cells) incubated with complexes were collected and total RNAs were isolated from cells using TriReagent™ (Sigma, Saint Louis) according to the manufacturer's recommendations. […] Signals were detected by Phosphorimaging (Molecular Dynamics) and quantified using ImageQuant software.
To further understand the impact of the NLS in MPG, we examined the biological response of an siRNA targeting the GAPDH gene following transfection into human fibroblasts (Hs68). […] Different concentrations of siRNA (25, 50, 100 nM) were transfected with either MPG or MPG^ΔNLS and the levels of GAPDH protein were analyzed by Western blotting 30 hrs post transfection. […] The kinetics of siRNA-induced degradation of GAPDH mRNA following transfection with either MPG or MPG^ΔNLS were analyzed by Northern blotting. […]

| Sequence | final subcellular localization of fluorescently-labeled siRNA (Hs68 human fibroblasts) | efficiency of siRNA delivery into cultured cells (% cells) (Hs68 human fibroblasts) | time after which significant/robust reduction of GAPDH mRNA is seen (GAPDH mRNA) [h] | time after which reduction of GAPDH mRNA is initiated (GAPDH mRNA) [h] |
| --- | --- | --- | --- | --- |
| GALFLGFLGAAGSTMGAWSQPKSKRKV (carrier peptide) [MPG^ΔNLS, MPG variant with single mutation of the second lysine residue in the NLS motif to serine] | remained mostly in the cytoplasm | about 90 % cells | 5 | – |
| GALFLGFLGAAGSTMGAWSQPKKKRKV (carrier peptide) [MPG, bipartite amphipathic peptide derived from fusion peptide domain of HIV-1 gp41 and NLS of SV40 large T antigen] | localized rapidly to the nucleus | about 90 % cells | 20 | 10 |
